Measurements reported in patent US6344454B1, “Nonsteroidal gestagens” (Schering Aktiengesellschaft, priority 1997, dated 2002).

Legend:
gestagen receptor = molecular target: T1, gestagen receptor (Oryctolagus cuniculus, UniProt P06186); assay: gestagen receptor bonding test (cytosol from rabbit uterus homogenate, 3H-progesterone as reference substance); type: binding
T1 construct: using cytosol from rabbit uterus homogenate; from tissue; host or cells: rabbit uterus cytosol
T1 sequence (P06186 1-930): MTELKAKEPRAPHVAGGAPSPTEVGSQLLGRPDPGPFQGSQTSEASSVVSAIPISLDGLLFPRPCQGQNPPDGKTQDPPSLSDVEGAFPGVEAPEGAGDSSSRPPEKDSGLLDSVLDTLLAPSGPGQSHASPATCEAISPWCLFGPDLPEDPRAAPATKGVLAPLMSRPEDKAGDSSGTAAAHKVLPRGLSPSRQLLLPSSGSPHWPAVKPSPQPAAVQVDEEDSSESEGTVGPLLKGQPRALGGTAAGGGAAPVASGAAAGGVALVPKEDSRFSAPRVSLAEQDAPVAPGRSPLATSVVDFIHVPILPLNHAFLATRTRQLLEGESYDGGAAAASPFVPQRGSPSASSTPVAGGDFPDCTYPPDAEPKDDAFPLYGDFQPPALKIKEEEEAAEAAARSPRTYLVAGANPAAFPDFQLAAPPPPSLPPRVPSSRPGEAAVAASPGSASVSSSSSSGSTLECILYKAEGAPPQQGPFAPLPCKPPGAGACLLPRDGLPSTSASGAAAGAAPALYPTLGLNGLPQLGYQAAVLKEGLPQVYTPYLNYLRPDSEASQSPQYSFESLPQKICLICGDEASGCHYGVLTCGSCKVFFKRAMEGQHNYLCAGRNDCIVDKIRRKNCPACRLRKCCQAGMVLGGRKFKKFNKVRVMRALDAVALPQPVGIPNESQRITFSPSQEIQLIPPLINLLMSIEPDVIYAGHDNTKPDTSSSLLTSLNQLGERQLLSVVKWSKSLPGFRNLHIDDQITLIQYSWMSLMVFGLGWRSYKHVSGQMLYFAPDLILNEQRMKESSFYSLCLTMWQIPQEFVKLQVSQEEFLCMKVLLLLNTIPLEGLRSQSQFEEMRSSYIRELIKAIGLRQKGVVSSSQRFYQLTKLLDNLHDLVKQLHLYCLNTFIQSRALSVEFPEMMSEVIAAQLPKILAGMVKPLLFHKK
Source text: In the gestagen receptor bonding test on the gestagenic action using cytosol from rabbit uterus homogenate and from ^3H-progesterone as a reference substance, the new compounds show a strong to very strong affinity to the gestagen receptor (see Table 1).

## COc1cccc(C(C)(C)CC(O)(C(=O)Nc2ccc3c(c2)COC3=O)C(F)(F)F)c1 (stereo not shown) [Example 4, 5-[2-Hydroxy-4-(3-methoxyphenyl)-4-methyl-2-trifluoromethyl-valeroylamino]-phthalide]
other
  melting point: 129 to 130 °C

## CC(CC(O)(C(=O)Nc1ccc([N+](=O)[O-])c(C(F)(F)F)c1)C(F)(F)F)c1ccccc1 (stereo not shown) [(*) (Melting point 141-142° C.), reference compound]
Gestagen receptor
  Competition Factor (Reference Substance 3H-Progesterone): 17

## CC(CC(O)(C(=O)Nc1ccc([N+](=O)[O-])c(C(F)(F)F)c1)C(F)(F)F)c1ccccc1 (stereo not shown) [(*) (Melting point 161° C.), reference compound]
Gestagen receptor
  Competition Factor (Reference Substance 3H-Progesterone): 2.0

## Cc1noc(=O)c2ccc(NC(=O)C(O)(CC(C)(C)c3ccccc3)C(F)(F)F)cc12 (stereo not shown) [Example 106]
Gestagen receptor
  Competition Factor (Reference Substance 3H-Progesterone): 0.55
other
  melting point: 123 °C

## CC(C)Oc1ccc(F)cc1C(C)(C)CC(O)(C(=O)Nc1ccc2c(c1)COC2=O)C(F)(F)F (racemic) [Example 155]
other
  melting point: 153 to 154 °C

## Cc1noc(=O)c2ccc(NC(=O)C(O)(CC(C)(C)c3ccccc3)C(F)(F)F)cc12 (stereo not shown) [Example 42, 6-(2-Hydroxy-4-methyl-4-phenyl-2-trifluoromethyl-valeroyl-amino)-4-methyl-2,3-benzoxazin-1-one]
other
  melting point: 172 to 173 °C

## CC(C)(CC(O)(CNc1ccc2c(c1)COC2=O)C(F)(F)F)c1ccccc1 (racemic) [Example 65]
Gestagen receptor
  Competition Factor (Reference Substance 3H-Progesterone): 0.17
other
  melting point: 154 °C

## CC(C)(CC(O)(C(=O)Nc1ccc2c(c1)COC2=O)C(F)(F)F)c1cccs1 (single isomer, unassigned; (+)) [Example 103 (+)-2-thienyl, (+)-5-[2-hydroxy-4-methyl-4-(2-thienyl)-2-trifluoromethyl-valeroylamino]-phthalide]
other
  melting point: 166 °C
